Key:
[1] = Miscibility / solubility of added substances in self-adhesive silicone gel (SASG); conditions: liquid in SASG
[2] = Gel consistency: elastic shear modulus G′ by rheometer; type: physicochemical; conditions: 4.8% Isopropyl Myristate in gel, vs pure gel (Table 7)
From the text: 1. Preparation of Materials for Performance Characterization. • Characterization of rheological properties: for these characterizations, a ˜0.6 g sample of non-crosslinked SACSG should be placed in the measuring cell. In the case of mixtures obtained by the direct mode, a sample of the degassed mixture whose preparation has just been described is used. If Parts A′ and B′ which have been obtained by the indirect method are available, both Parts A′ and B′ are rehomogenised if necessary, equivalent masses of A′ and B′ are weighed and mixed with a spatula; after degassing at 20-50 mbar at room temperature until the bubbles are eliminated (about 10 minutes), a sample of the mixture may be taken and placed in the measuring cell. […]
The consistency of the gels is characterized by their elastic shear modulus, which is measured as follows: • rheometer: Thermofisher RS 6000. • Plan-Plan cell: rotor with 20 mm radius, rotor/stator gap=0.5 mm. • mode: imposed stress=10 Pa. • oscillation frequency: 1 Hz. • temperature: sample installation at 30°. • closing of the cell in two steps: 3 mm/mn until D=1.5 mm, then 0.15 mm/mn until D=0.5 mm. • temperature rise to 70° in 60 s. • measurement G′-G″ at 70° for 4000 s, return to 30°. […]

## COC(=O)c1ccccc1O [Methyl Salicylate]
[1]
  miscibility with SASG: 12-15%

## CCCCCCCCCCCCCC(=O)OC(C)C [Isopropyl Myristate]
[2]
  drop of G′ value: 20%

Source: patent publication US20220202624A1, “SELF-ADHESIVE SILICONE GEL LOADED WITH MICROPARTICLES, PARTICLES WITH IMPROVED ADHESION” (priority 2019, published 2022)
